Counter-ions that a name gives are not always drawn. Like-named read-outs stand apart in the source and are kept apart here.
What was measured:
[1] = tested on: IL-17 production by CD4+ T cells under conditions which favor Th17 differentiation; assay: Human Th17 assay (IL-17 production by CD4 T cells); type: cell-based
Description: The human Th17 assay tests the effect of RORγt modulatory compounds on IL-17 production by CD4 T cells under conditions which favor Th17 differentiation. Total CD4^+ T cells were isolated from the peripheral blood mononuclear cells (PBMC) of healthy donors using a CD4^+ T cell isolation kit II, following the manufacturer's instructions (Miltenyi Biotec). […] 50 μL of compound at titrated concentrations in DMSO were added into each well at final DMSO concentration at 0.2%. Cells were incubated for 1 hour, then 50 μL of Th17 cell differentiation medium was added to each well. The final concentrations of antibodies and cytokines (R&D Systems) in differentiation medium were: 3×10^6/mL anti-CD3/CD28 beads (prepared using human T cell activation/expansion kit, Miltenyi Biotec), 10 μg/mL anti-IL4, 10 μg/mL anti-IFNγ, 10 ng/mL IL113, 10 ng/mL IL23, 50 ng/mL IL6, 3 ng/mL TGFβ and 20 U/mL IL2. Cells were cultured at 37° C. and 5% CO2 for 3 days. Supernatants were collected and the accumulated IL-17 in culture was measured by using MULTI-SPOT® Cytokine Plate following manufacture's instruction (Meso Scale Discovery). The plate was read using Sector Imager 6000, and IL-17 concentration was extrapolated from the standard curve. The IC50s were determined by GraphPad.

[2] = target: human RORγt LBD fused to the DNA binding domain of the GAL4 protein (Homo sapiens (Human), UniProt P51449); assay: RORγt (LBD) reporter assay in HEK293T cells; type: cell-based; design: RORγt (LBD) Reporter Assay, % inhibition: dose or concentration left out as unconfirmed
human RORγt LBD fused to the DNA binding domain of the GAL4 protein, sequence (P51449 258-518): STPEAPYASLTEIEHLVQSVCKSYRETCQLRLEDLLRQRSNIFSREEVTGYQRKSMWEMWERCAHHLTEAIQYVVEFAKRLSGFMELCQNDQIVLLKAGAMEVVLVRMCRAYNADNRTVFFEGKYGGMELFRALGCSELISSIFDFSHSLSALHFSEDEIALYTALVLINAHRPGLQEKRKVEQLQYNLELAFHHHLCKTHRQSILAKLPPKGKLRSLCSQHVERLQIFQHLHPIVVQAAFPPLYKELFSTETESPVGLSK
Excerpt: A reporter assay was used to test functional activity of RORγt modulatory compounds on transcriptional activation driven by the RORγt LBD. Cells used in the assay were co-transfected with two constructs. The first construct, pBIND-RORγt LBD, contained the wild type human RORγt LBD fused to the DNA binding domain of the GAL4 protein. The second construct, pGL4.31 (Promega Cat no. C935A), contained multiple GAL4 responsive DNA elements upstream of firefly luciferase.
The pBIND vector contains the GAL4 DNA Binding Domain (GAL4 DBD) and the renilla luciferase gene under control of the SV40 promoter. Renilla luciferase expression serves as a control for transfection efficiency and cell viability.
The reporter assay was performed by transiently transfecting HEK293T cells with 5 μg of pBIND-RORγt LBD or pBIND-RORγt LBD-AF2 and 5 μg pGL4.31 (Promega Cat no. C935A) using Fugene 6 (Invitrogen Cat no. E2691) at a 1:6 ratio of DNA:Fugene 6 in a T-75 flask in which cells were at least 80% confluent. Twenty four hours after bulk transfection, cells were plated into 96-well plates at 50,000 cells/well in phenol-red free DMEM containing 5% Lipid Reduced FCS and Pen/Strep. Six hours after plating, cells were treated with compounds for 24 hours. Media was removed and cells were lysed with 50 μL 1× Glo Lysis Buffer (Promega). Dual Glo Luciferase Reagent (50 μL/well) was then added and firefly luciferase luminescence was read on an Envision after a ten minute incubation. Finally, Stop and Glo reagent (50 L/well) was added and renilla luciferase luminescence was read on an Envision after a ten minute incubation. To calculate the effect of compounds on RORγt activity, the ratio of firefly to renilla luciferase was determined and plotted against compound concentration. Agonist compounds increase RORγt-driven luciferase expression, and antagonist or inverse agonist compounds decrease luciferase expression.

[3] = target: human RORγt ligand binding domain (RORγt LBD) (Homo sapiens (Human), UniProt P51449); assay: RORγt ThermoFluor assay (thermal shift, binding affinity Kd); conditions: read-out: ThermoFluor Assay, Kd
human RORγt ligand binding domain (RORγt LBD), sequence (P51449 other isoform, or with tags, fused parts or gaps): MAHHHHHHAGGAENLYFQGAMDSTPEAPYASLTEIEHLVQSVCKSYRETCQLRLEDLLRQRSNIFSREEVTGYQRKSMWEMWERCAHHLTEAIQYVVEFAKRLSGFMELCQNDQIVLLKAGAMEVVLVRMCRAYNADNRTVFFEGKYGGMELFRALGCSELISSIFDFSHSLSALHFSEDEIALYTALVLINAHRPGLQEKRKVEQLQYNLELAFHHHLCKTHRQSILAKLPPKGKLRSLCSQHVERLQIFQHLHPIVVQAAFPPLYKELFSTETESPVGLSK

Structure (SMILES) | IC50 ([1]; Homo sapiens) [nM] | IC50 [1] [nM] | further results
COc1nc2ccc(C(O)(c3ccc(C(F)(F)F)nc3)c3cncn3C)cc2c(Cl)c1OC(C)C (single isomer, unassigned) [Example 95b, [4-Chloro-2-methoxy-3-(1-methylethoxy)quinolin-6-yl](1-methyl-1H-imidazol-5-yl)[6-(trifluoromethyl)pyridin-3-yl]methanol] | 61 |  | 
COc1nc2ccc(C(O)(c3ccc(Cl)cc3)c3cncn3C)cc2c(Cl)c1OC(C)C (single isomer, unassigned) [Example 99b, [4-Chloro-2-methoxy-3-(1-methylethoxy)quinolin-6-yl](4-chlorophenyl)(1-methyl-1H-imidazol-5-yl)methanol] | 1200 |  | 
COc1nc2ccc(C(O)(c3ccnc(C(F)(F)F)c3)c3cncn3C)cc2c(Cl)c1CN1CCC(C(F)(F)F)CC1 (single isomer, unassigned) [Example 100c, (4-Chloro-2-methoxy-3-((4-(trifluoromethyl)piperidin-1-yl)methyl)quinolin-6-yl)(1-methyl-1H-imidazol-5-yl)(2-(trifluoromethyl)pyridin-4-yl)methanol] |  |  | IC50 ([1]; Homo sapiens, CD4+ T): 7.6 nM; RORγt (LBD) Reporter Assay, % inhibition @ 6 μM [2]: 100%
COc1nc2ccc(C(O)(c3ccc(Cl)cc3)c3cncn3C)cc2c(Cl)c1CN1CCC(n2cccn2)CC1 (single isomer, unassigned) [Example 101c, (3-((4-(1H-Pyrazol-1-yl)piperidin-1-yl)methyl)-4-chloro-2-methoxyquinolin-6-yl)(4-chlorophenyl)(1-methyl-1H-imidazol-5-yl)methanol] | 360 |  | 
COc1nc2ccc(C(O)(c3cnnn3C)c3cnc(C)n3C)cc2c(Cl)c1CN1CCC(C(F)(F)F)CC1 (single isomer, unassigned) [Example 106c, (4-Chloro-2-methoxy-3-((4-(trifluoromethyl)piperidin-1-yl)methyl)quinolin-6-yl)(1,2-dimethyl-1H-imidazol-5-yl)(1-methyl-1H-1,2,3-triazol-5-yl)methanol] |  | 1.4 | RORγt (LBD) Reporter Assay, % inhibition @ 6 μM [2]: 100%
COc1nc2ccc(C(O)(c3cnc(C)n3C)C3CN(C(C)=O)C3)cc2c(Cl)c1CN1CCC(C(F)(F)F)CC1 (single isomer, unassigned) [Example 124b, 1-(3-((4-Chloro-2-methoxy-3-((4-(trifluoromethyl)piperidin-1-yl)methyl)quinolin-6-yl)(1,2-dimethyl-1H-imidazol-5-yl)(hydroxy)methyl)azetidin-1-yl)ethanone] |  | > 6000 | 
COc1nc2ccc(C(O)(c3cnc(C)n3C)C3CN(C(C)=O)C3)cc2c(Cl)c1CN1CCC(C(F)(F)F)CC1 (single isomer, unassigned) [Example 124c, 1-(3-((4-Chloro-2-methoxy-3-((4-(trifluoromethyl)piperidin-1-yl)methyl)quinolin-6-yl)(1,2-dimethyl-1H-imidazol-5-yl)(hydroxy)methyl)azetidin-1-yl)ethanone] |  | 35 | 
COc1nc2ccc(C(O)(c3ccc(C)nc3C)c3cnnn3C)cc2c(Cl)c1CC(F)(F)F (single isomer, unassigned) [Example 143c, [4-Chloro-2-methoxy-3-(2,2,2-trifluoroethyl)quinolin-6-yl](2,6-dimethylpyridin-3-yl)(1-methyl-1H-1,2,3-triazol-5-yl)methanol] |  |  | IC50 ([1]; Homo sapiens, CD4+ T): 370 nM; RORγt (LBD) Reporter Assay, % inhibition [2]: 100%
COc1nc2ccc([C@@](O)(c3ccccc3)C3CCN(C(C)=O)CC3)cc2c(Cl)c1CC1CCOCC1 [Example 4b] |  | > 6000 | IC50 [2]: > 6 µM; RORγt (LBD) Reporter Assay, % inhibition @ 6 μM [2]: 42%; Kd [3]: 9 nM
CCOC(=O)c1c(C(F)(F)F)nc2ccc(C(O)(c3cccnc3)c3cccnc3)cc2c1C(F)(F)F [Example 8, Ethyl 6-(hydroxydi(pyridin-3-yl)methyl)-2,4-bis(trifluoromethyl)quinoline-3-carboxylate.TFA] | 200 |  | 
CC(C)c1c(Cl)nc2ccc(C(O)(c3cccnc3)c3cccc(Cl)c3)cc2c1Cl (stereo not shown) [Example 19, (3-Chlorophenyl) [2,4-dichloro-3-(1-methylethyl)quinolin-6-yl]pyridin-3-ylmethanol.TFA] | 1300 |  | 
CC(C)(C)c1c(/C=C/c2ccccc2)nc2ccc(C(O)(c3cccnc3)c3cccc(Cl)c3)cc2c1Cl (stereo not shown) [Example 27, {3-tert-Butyl-4-chloro-2-[(E)-2-phenylethenyl]quinolin-6-yl}(3-chlorophenyl)pyridin-3-ylmethanol.TFA] | ~3000 |  | 
COc1nc2ccc(C(O)(c3cnc(C)n3C)c3cnc(C)n3C)cc2c(Cl)c1CN1CCC(C(F)(F)F)CC1 [Example 111, (4-Chloro-2-methoxy-3-((4-(trifluoromethyl)piperidin-1-yl)methyl)quinolin-6-yl)bis(1,2-dimethyl-1H-imidazol-5-yl)methanol] | 17 |  | 

Reference: patent US10201546B2, “Quinolinyl modulators of RORγt” (Janssen Pharmaceutica NV, priority 2013, dated 2019)
